Source: paper PMC5769128, “Human UDP-Glucuronosyltransferase 2B4 and 2B7 Are Responsible for Naftopidil Glucuronidation in Vitro” (Frontiers in Pharmacology, 2018)

How the values were obtained:
Conditions in all cases: 10 μM substrate, 45 min
recombinant human UGT1A6 = biological target: T1, recombinant human UGT1A6 (Homo sapiens, UniProt P19224); assay: UGT reaction screening of NAF enantiomers, UGT1A6
T1 sequence (P19224 27-532): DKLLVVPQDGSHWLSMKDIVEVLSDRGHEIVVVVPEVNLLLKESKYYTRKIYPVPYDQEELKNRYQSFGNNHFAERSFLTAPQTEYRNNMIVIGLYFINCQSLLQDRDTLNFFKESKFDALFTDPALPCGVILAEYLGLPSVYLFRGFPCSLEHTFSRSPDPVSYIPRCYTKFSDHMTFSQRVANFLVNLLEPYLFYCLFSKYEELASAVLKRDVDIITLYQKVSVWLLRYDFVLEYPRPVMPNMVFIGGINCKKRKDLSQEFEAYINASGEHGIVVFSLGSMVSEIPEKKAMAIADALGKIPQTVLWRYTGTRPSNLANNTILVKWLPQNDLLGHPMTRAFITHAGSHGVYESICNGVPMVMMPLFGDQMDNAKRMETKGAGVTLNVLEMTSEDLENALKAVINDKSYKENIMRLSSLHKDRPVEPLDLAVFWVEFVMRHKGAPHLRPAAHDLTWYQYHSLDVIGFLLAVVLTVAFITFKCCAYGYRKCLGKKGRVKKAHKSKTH

recombinant human UGT2B4 = biological target: T2, recombinant human UGT2B4 (Homo sapiens, UniProt P06133); assay: UGT reaction screening of NAF enantiomers, UGT2B4; format: in vitro ADME
T2 construct: purchased BD Gentest
T2 sequence (P06133 24-528): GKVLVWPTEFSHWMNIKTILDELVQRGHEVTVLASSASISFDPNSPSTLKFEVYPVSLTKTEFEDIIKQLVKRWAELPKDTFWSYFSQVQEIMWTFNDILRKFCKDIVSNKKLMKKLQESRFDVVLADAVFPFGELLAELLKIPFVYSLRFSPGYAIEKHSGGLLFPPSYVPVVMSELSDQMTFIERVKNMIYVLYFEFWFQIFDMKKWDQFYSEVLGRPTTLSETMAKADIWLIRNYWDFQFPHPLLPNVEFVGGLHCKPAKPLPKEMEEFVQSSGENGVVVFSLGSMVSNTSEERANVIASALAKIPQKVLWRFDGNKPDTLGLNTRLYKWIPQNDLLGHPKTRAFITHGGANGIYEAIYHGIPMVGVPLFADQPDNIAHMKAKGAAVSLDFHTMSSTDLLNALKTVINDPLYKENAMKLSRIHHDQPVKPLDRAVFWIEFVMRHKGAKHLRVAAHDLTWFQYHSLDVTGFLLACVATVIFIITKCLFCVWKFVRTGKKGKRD

[1] = test system: UGT1A4, 1A3, 2B17, 2B15, 1A9, 1A8, and 1A7; assay: UGT reaction screening of S(-)-NAF, minor isoforms; format: in vitro ADME, human
[2] = test system: UGT1A1, 1A4, 1A3, 2B17, 1A8, 2B15, and 1A7; assay: UGT reaction screening of R(+)-NAF, minor isoforms; format: in vitro ADME, human

Compound | Glucuronide formation by UGT1A6 (recombinant human UGT1A6) | Glucuronidation activity of UGT2B4 compared with UGT2B7 (recombinant human UGT2B4) | Glucuronidation activity [1] | Glucuronidation activity, times lower than UGT2B7 [2]
COc1ccccc1N1CCN(C[C@H](O)COc2cccc3ccccc23)CC1 [S(-)-NAF] | no activity | relatively higher activity than UGT2B7 | a small amount of activity | –
COc1ccccc1N1CCN(C[C@@H](O)COc2cccc3ccccc23)CC1 [R(+)-NAF] | No R(+)-NAF-G was detected | – | – | more than 10 times
